Assay results as given in ChEMBL document CHEMBL5614437, “Antibacterial and Anti-Inflammatory Activity of Branched Peptides Derived from Natural Host Defense Sequences” (J Med Chem, 2024).
Calls of active or inactive are those of the source. No cut-off for these calls is given here. Bridges are numbered along the chain shown (N, C = ends). Roman numbers before positions name the chains, in order.

Assays:
Cell membrane [1] = assay: Induction of cytoplasmic membrane permeabilization in Escherichia coli TG1 assessed as wrinkling of membrane surface at 2 times of MIC measured after 30 to 60 mins by SEM analysis; details: time 30-60 min
Staphylococcus aureus = assay: Antibacterial activity against Staphylococcus aureus USA300 incubated for 12 hrs by microdilution method; format: functional
Escherichia coli [2] = assay: Antibacterial activity against Escherichia coli TG1 incubated for 12 hrs by microdilution method; format: functional
RAW264.7 [3] = assay: Cytotoxicity against mouse RAW264.7 cells assessed as cell killing incubated for 4 to 24 hrs by crystal violet staining based analysis; format: toxicity; details: time 4-24 hrs
Lipopolysaccharide (LPS) = assay: Binding affinity to biotin-tagged LPS (unknown origin) preincubated for 30 mins followed by compound addition and 30 mins of incubation with streptavidin-POD by ELISA based microplate spectrophotometer; format: subcellular; details: dose 1-10 µg/ml
Cell membrane [4] = assay: Induction of cytoplasmic membrane permeabilization in Escherichia coli TG1 assessed as loss of surface smoothness at 2 times of MIC measured after 30 to 60 mins by SEM analysis; details: time 30-60 min
Cell membrane [5] = assay: Induction of cytoplasmic membrane permeabilization in Escherichia coli TG1 assessed as increase in fluorescence at MIC measured after 40 to 50 mins by PI/Sytox green dye based analysis; details: time 40-50 min
Erythrocyte [6] = assay: Hemolytic activity in human RBC assessed as hemolysis at ~15 uM incubated for 2 hrs by absorbance based plate reader analysis; format: toxicity, cell-based
Enterococcus faecalis = assay: Antibacterial activity against Enterococcus faecalis 51299 incubated for 12 hrs by microdilution method; format: functional
Escherichia coli [7] = assay: Antibiofilm activity against Escherichia coli TG1 assessed as inhibition of biofilm formation incubated for 24 hrs by absorbance based analysis; format: functional
Escherichia coli [8] = assay: Antibiofilm activity against 24 hrs preformed biofilm in Escherichia coli TG1 assessed as reduction in preformed biofilm incubated for 14 hrs by absorbance based analysis; format: functional
[9] = Stability of compound in human serum at 180 uM measured after 4 hrs by HPLC-MS analysis; format: ADME, cell-free
Cell membrane [10] = assay: Induction of cytoplasmic membrane permeabilization in Escherichia coli TG1 assessed as increase in fluorescence incubated for 100 to 120 mins by PI/Sytox green dye based analysis; details: dose 1.5-3 µM, time 100-120 min
Klebsiella pneumoniae [11] = assay: Antibacterial activity against colistin-resistant Klebsiella pneumoniae incubated for 12 hrs by microdilution method; format: functional
[12] = Stability of compound in human serum at 180 uM measured after 24 hrs by HPLC-MS analysis; format: ADME, cell-free
Cell membrane [13] = assay: Induction of cytoplasmic membrane permeabilization in Escherichia coli TG1 assessed as enlargement of bacterial cells at 2 times of MIC measured after 30 to 60 mins by SEM analysis; format: cell membranes; details: time 30-60 min
Pseudomonas aeruginosa [14] = assay: Antibacterial activity against Pseudomonas aeruginosa ATCC 27853 incubated for 12 hrs by microdilution method; format: functional
[15] = Selectivity ratio of biofilm prevention concentration for antibiofilm activity against Escherichia coli TG1 to MIC for antibacterial activity against Escherichia coli TG1; format: functional
Klebsiella pneumoniae [16] = assay: Antibiofilm activity against 24 hrs preformed biofilm in Klebsiella pneumoniae ATCC43816 assessed as reduction in preformed biofilm incubated for 14 hrs by absorbance based analysis; format: functional
Cell membrane [17] = assay: Induction of cytoplasmic membrane permeabilization in Escherichia coli TG1 assessed as increase in fluorescence at 2 times of MIC measured after 10 mins by PI/Sytox green dye based analysis; format: cell membranes
Klebsiella pneumoniae [18] = assay: Antibiofilm activity against Klebsiella pneumoniae ATCC43816 assessed as inhibition of biofilm formation incubated for 24 hrs by absorbance based analysis; format: functional
Escherichia coli [19] = assay: Antibacterial activity against Escherichia coli clinical isolate LC711/14 incubated for 12 hrs by microdilution method; format: functional
RAW264.7 [20] = assay: Cytotoxicity against mouse RAW264.7 cells assessed as cell death at 1 log concentration incubated for 4 to 24 hrs by crystal violet staining based analysis relative to control; format: toxicity; details: time 4-24 hrs
Klebsiella pneumoniae [21] = assay: Antibacterial activity against Klebsiella pneumoniae ATCC43816 incubated for 12 hrs by microdilution method; format: functional
Erythrocyte [22] = assay: Hemolytic activity in human RBC assessed as hemolysis at 10 times of MIC incubated for 2 hrs by absorbance based plate reader analysis; format: toxicity, cell-based
RAW264.7 [23] = assay: Cytotoxicity against mouse RAW264.7 cells assessed as cell killing at 200 uM incubated for 4 to 24 hrs by crystal violet staining based analysis relative to control; format: toxicity; details: raw264.7, 200 µM, time 4-24 hrs
Escherichia coli [24] = assay: Antibacterial activity against Escherichia coli TG1 transfected with pGEN-luxCDABE plasmid infected in female BALB/C mouse model of skin infection assessed as reduction in bacterial burden at 16 mg/kg, SC pre-infected with bacteria for 2 hrs followed by compound administration and measured after 2 to 3 days by luminescence imaging analysis; format: functional, organism-based; details: time 2-3 day
Pseudomonas aeruginosa [25] = assay: Antibacterial activity against Pseudomonas aeruginosa clinical isolate FI-29 expressing GES-5 beta-lactamase incubated for 12 hrs by microdilution method; format: functional
Mus musculus = assay: Anti-inflammatory activity in female BALB/C skin infection mouse model infected with Escherichia coli TG1 transfected with pGEN-luxCDABE plasmid assessed as reduction in monocyte number in skin at 16 mg/kg, SC pre-infected with bacteria for 2 hrs followed by compound administration and measured after 3 days by DAPI staining based immunohistochemical analysis; format: functional, organism-based; details: time 3.0 day
Enterococcus faecium = assay: Antibacterial activity against vancomycin-resistant Enterococcus faecium clinical isolate FI-48 incubated for 12 hrs by microdilution method; format: functional
Erythrocyte [26] = assay: Hemolytic activity in human RBC assessed as hemolysis at 5 uM incubated for 2 hrs by absorbance based plate reader analysis; format: toxicity, cell-based
Pseudomonas aeruginosa [27] = assay: Antibacterial activity against Pseudomonas aeruginosa clinical isolate FI-25 expressing VIM-1 metallo-beta-lactamase incubated for 12 hrs by microdilution method; format: functional
Cell membrane [28] = assay: Disruption of outer membrane integrity in Escherichia coli TG1 assessed as formation of blisters outside the cell measured after 60 mins by TEM analysis; format: cell membranes
Cell membrane [29] = assay: Disruption of outer membrane integrity in Escherichia coli TG1 assessed as loss of double layer integrity measured after 60 mins by TEM analysis
Escherichia coli [30] = assay: Antibacterial activity against Escherichia coli TG1 transfected with pGEN-luxCDABE plasmid infected in female BALB/C mouse model of skin infection assessed as reduction in bacterial burden at 16 mg/kg, SC pre-infected with bacteria for 2 hrs followed by compound administration and measured on day 2 by luminescence imaging analysis relative to control; format: functional; design: scale not given: the % may be the effect or the level left; details: time 2 day
Erythrocyte [31] = assay: Hemolytic activity in human RBC assessed as hemolysis at 0.25 to 100 uM incubated for 2 hrs by absorbance based plate reader analysis; format: toxicity, cell-based; details: dose 0.25-100 µM
[32] = Selectivity ratio of MBIC80 for antibiofilm activity against preformed biofilm in Escherichia coli TG1 to MIC for antibacterial activity against Escherichia coli TG1; format: functional

In the case of “I: H-GRFKRFRKKLKK-NH2 / II: H-GRFKRFRKKLK / III: H-GRFKRFRKKL / IV: H-GRFKRFRKKL (amide I:11-IV:C, I:12-II:C, II:11-III:C)”, the Activity (Cell membrane [1]) is reported as “Active”, the MIC (Staphylococcus aureus) is reported as over 25 µM and the MIC (Escherichia coli [2]) is reported as 6 µM. The LC50 (RAW264.7 [3]) was 1.258 10^-5M, the Activity (Lipopolysaccharide (LPS)) was “Dose-Dependent Effect” and the Activity (Cell membrane [4]) was “Active”. For the same substance, the Activity (Cell membrane [5]) was “Active”, the Activity (Erythrocyte [6]) was “Toxic” and the MIC (Enterococcus faecalis) was over 25 µM. The IC20 (Escherichia coli [7]) was 25 µM, the MBIC80 (Escherichia coli [8]) was 50 µM and the Stability [9] was “Stable”. The Activity (Cell membrane [10]) was “Dose-Dependent Effect”, the MIC (Klebsiella pneumoniae [11]) was over 25 µM and the Stability [12] was “Unstable”. The Activity (Cell membrane [13]) was “Active”, the MIC (Pseudomonas aeruginosa [14]) was 6 µM and the Selectivity ratio [15] was 4. The MBIC80 (Klebsiella pneumoniae [16]) was 50 µM, the Activity (Cell membrane [17]) was “Active” and the IC20 (Klebsiella pneumoniae [18]) was 50 µM. For the same substance, the MIC (Escherichia coli [19]) was over 25 µM, the Activity (RAW264.7 [20]) was 100% and the MIC (Klebsiella pneumoniae [21]) was 25 µM.
In the case of “I: H-LLKKVLKAAAKKK-NH2 / II: H-LLKKVLKAAAKK / III: H-LLKKVLKAAAK / IV: H-LLKKVLKAAAK (amide I:12-IV:C, I:13-II:C, II:12-III:C)”, the Activity (Cell membrane [1]) is reported as “Active”, the MIC (Staphylococcus aureus) is reported as over 25 µM and the MIC (Escherichia coli [2]) is reported as 1.5 µM. For the same substance, the Activity (Lipopolysaccharide (LPS)) was “Dose-Dependent Effect”, the Activity (Cell membrane [4]) was “Active” and the Activity (Cell membrane [5]) was “Active”. For the same substance, the MIC (Enterococcus faecalis) was over 25 µM, the IC20 (Escherichia coli [7]) was 6 µM and the MBIC80 (Escherichia coli [8]) was 50 µM. For the same substance, the Stability [9] was “Stable”, the Activity (Cell membrane [10]) was “Dose-Dependent Effect” and the MIC (Klebsiella pneumoniae [11]) was over 25 µM. For the same substance, the Activity (Erythrocyte [22]) was “Non-Toxic”, the Stability [12] was “Stable” and the Activity (Cell membrane [13]) was “Active”. It also gave an Activity (RAW264.7 [23]) of 100%, an MIC (Pseudomonas aeruginosa [14]) of 6 µM and an MBIC80 (Klebsiella pneumoniae [16]) of 50 µM. The Activity (Cell membrane [17]) was “Active”, the IC20 (Klebsiella pneumoniae [18]) was over 50 µM and the MIC (Escherichia coli [19]) was 6 µM. For the same substance, the MIC (Klebsiella pneumoniae [21]) was 12.5 µM.
With “I: H-TLLKKVLKAAAKKK-NH2 / II: H-TLLKKVLKAAAKK / III: H-TLLKKVLKAAAK / IV: H-TLLKKVLKAAAK (amide I:13-IV:C, I:14-II:C, II:13-III:C)” the Activity (Cell membrane [1]) was “Active”, the MIC (Staphylococcus aureus) was over 25 µM and the MIC (Escherichia coli [2]) was 1.5 µM. The LC50 (RAW264.7 [3]) was 4.405 10^-7M, the Activity (Lipopolysaccharide (LPS)) was “Dose-Dependent Effect” and the Activity (Cell membrane [4]) was “Active”. The Activity (Cell membrane [5]) was “Active”, the Activity (Escherichia coli [24]) was “Active” and the MIC (Enterococcus faecalis) was 25 µM. For the same substance, the IC20 (Escherichia coli [7]) was 1.5 µM, the MIC (Pseudomonas aeruginosa [25]) was 12 µM and the MBIC80 (Escherichia coli [8]) was 3 µM. The Activity (Mus musculus) was “Active”, the Stability [9] was “Stable” and the MIC (Enterococcus faecium) was 6 µM. The Activity (Cell membrane [10]) was “Dose-Dependent Effect”, the MIC (Klebsiella pneumoniae [11]) was 6 µM and the Activity (Erythrocyte [26]) was “Toxic”. For the same substance, the MIC (Pseudomonas aeruginosa [27]) was 12 µM, the Stability [12] was “Stable” and the Activity (Cell membrane [13]) was “Active”. For the same substance, the Activity (Cell membrane [28]) was “Active”, the Activity (Cell membrane [29]) was “Active” and the MIC (Pseudomonas aeruginosa [14]) was 6 µM. For the same substance, the MBIC80 (Klebsiella pneumoniae [16]) was 50 µM, the Activity (Cell membrane [17]) was “Active” and the IC20 (Klebsiella pneumoniae [18]) was 50 µM. It also gave an MIC (Escherichia coli [19]) of 3 µM, an Activity (RAW264.7 [20]) of 100% and an MIC (Klebsiella pneumoniae [21]) of 6 µM. It also gave an Activity (Escherichia coli [30]) of 75%.
With “I: H-KKLLGKNWKLMKK-NH2 / II: H-KKLLGKNWKLMK / III: H-KKLLGKNWKLM / IV: H-KKLLGKNWKLM (amide I:12-IV:C, I:13-II:C, II:12-III:C)” the Activity (Cell membrane [1]) was “Active”, the MIC (Staphylococcus aureus) was over 25 µM and the MIC (Escherichia coli [2]) was 3 µM. The LC50 (RAW264.7 [3]) was 1 10^-5M, the Activity (Lipopolysaccharide (LPS)) was “Dose-Dependent Effect” and the Activity (Cell membrane [4]) was “Active”. For the same substance, the Activity (Cell membrane [5]) was “Active”, the MIC (Enterococcus faecalis) was over 25 µM and the MBIC80 (Escherichia coli [8]) was 25 µM. For the same substance, the Stability [9] was “Stable”, the Activity (Erythrocyte [31]) was “Non-Toxic” and the Selectivity ratio [32] was 8. The Activity (Cell membrane [10]) was “Dose-Dependent Effect”, the MIC (Klebsiella pneumoniae [11]) was over 25 µM and the Stability [12] was “Stable”. The Activity (Cell membrane [13]) was “Active”, the MIC (Pseudomonas aeruginosa [14]) was 3 µM and the MBIC80 (Klebsiella pneumoniae [16]) was 50 µM. For the same substance, the Activity (Cell membrane [17]) was “Active”, the MIC (Escherichia coli [19]) was over 25 µM and the Activity (RAW264.7 [20]) was 100%. The MIC (Klebsiella pneumoniae [21]) was 25 µM.
